Experimental data as given in US10131652B2, “Pyrimidinyloxy benzene derivatives as herbicides” (E. I. DU PONT DE NEMOURS AND COMPANY, priority 2014, dated 2018).

What was measured:
Test in all cases: Test F pre-/postemergence plant response
Format in all cases: in vivo
Conditions in all cases: scale 0 to 100
[1] = tested on: field bindweed (Convolvulus arvensis)
Source text: (§1) Seeds of plant species selected from corn (Zea mays), soybean (Glycine max), velvetleaf (Abutilon theophrasti), lambsquarters (Chenopodium album), wild poinsettia (Euphorbia heterophylla), palmer pigweed (Amaranthus palmeri), waterhemp (common waterhemp, Amaranthus rudis), surinam grass (Brachiaria decumbens), large (Lg) crabgrass (Digitaria sanguinalis), Brazilian crabgrass (Digitaria horizontalis), fall panicum (Panicum dichotomiflorum), giant foxtail (Setaria faberii), green foxtail (Setaria viridis), goosegrass (Eleusine indica), johnsongrass (Sorghum halepense), ragweed (common ragweed, Ambrosia elatior), barnyardgrass (Echinochloa crus-galli), sandbur (southern sandbur, Cenchrus echinatus), arrowleaf sida (Sida rhombifolia), Italian ryegrass (Lolium multiflorum), dayflower (Virginia (VA) dayflower, Commelina virginica), field bindweed (Convolvulus arvensis), cocklebur (common cocklebur, Xanthium strumarium), momingglory (Ipomoea coccinea), nightshade (eastern black nightshade, Solanum ptycanthum), kochia (Kochia scoparia), yellow nutsedge (Cyperus esculentus), and hairy beggarticks (Bidens pilosa), were planted into a silt loam soil and treated preemergence with test chemicals formulated in a non-phytotoxic solvent mixture which included a surfactant.
(§2) At the same time, plants from these crop and weed species and also waterhemp_RES1, (ALS & Triazine resistant common waterhemp, Amaranthus rudis), and waterhemp_RES2, (ALS & HPPD resistant common waterhemp, Amaranthus rudis) were treated with postemergence applications of test chemicals formulated in the same manner. Plants ranged in height from 2 to 18 cm for postemergence treatments (1- to 4-leaf stage).
(§3) Treated plants and controls were maintained in a greenhouse for 14 to 21 days, after which time all species were compared to controls and visually evaluated. Plant response ratings, summarized in Table F, are based on a scale of 0 to 100 where 0 is no effect and 100 is complete control. A dash (-) response means no test result.

[2] = tested on: fall panicum (Panicum dichotomiflorum)
Source text: as §1, §2, §3

[3] = tested on: Brazilian crabgrass (Digitaria horizontalis)
Source text: as §1, §2, §3

[4] = tested on: waterhemp (common waterhemp, Amaranthus rudis)
Source text: as §1, §2, §3

corn (Zea mays) = tested on: corn (Zea mays)
Source text: as §1, §2, §3

[5] = tested on: wild poinsettia (Euphorbia heterophylla)
Source text: as §1, §2, §3

[6] = tested on: dayflower (Virginia (VA) dayflower, Commelina virginica)
Source text: as §1, §2, §3

[7] = tested on: sandbur (southern sandbur, Cenchrus echinatus)
Source text: as §1, §2, §3

[8] = tested on: palmer pigweed (Amaranthus palmeri)
Source text: as §1, §2, §3

soybean (Glycine max) = tested on: soybean (Glycine max)
Source text: as §1, §2, §3

Structure (SMILES)	Plant response rating, Field Bindweed ([1]; 16 g ai/ha Postemergence)	Plant response rating, Field Bindweed ([1]; 31 g ai/ha Postemergence)	Plant response rating, Field Bindweed ([1]; 125 g ai/ha Postemergence)	Plant response rating, Panicum, Fall ([2]; 16 g ai/ha Postemergence)	Plant response rating, Panicum, Fall ([2]; 31 g ai/ha Postemergence)	Plant response rating, Panicum, Fall ([2]; 62 g ai/ha Postemergence)	Plant response rating, Panicum, Fall ([2]; 125 g ai/ha Postemergence)	Plant response rating, Crabgrass, Brazil ([3]; 16 g ai/ha Postemergence)	Plant response rating, Crabgrass, Brazil ([3]; 31 g ai/ha Postemergence)	Plant response rating, Crabgrass, Brazil ([3]; 62 g ai/ha Postemergence)	Plant response rating, Crabgrass, Brazil ([3]; 125 g ai/ha Postemergence)	Plant response rating, Waterhemp ([4]; 16 g ai/ha Postemergence)	Plant response rating, Waterhemp ([4]; 31 g ai/ha Postemergence)	Plant response rating, Waterhemp ([4]; 62 g ai/ha Postemergence)	Plant response rating, Waterhemp ([4]; 125 g ai/ha Postemergence)	Plant response rating, Corn (corn (Zea mays); 16 g ai/ha Postemergence)	Plant response rating, Corn (corn (Zea mays); 31 g ai/ha Postemergence)	Plant response rating, Corn (corn (Zea mays); 62 g ai/ha Postemergence)	Plant response rating, Corn (corn (Zea mays); 125 g ai/ha Postemergence)	Plant response rating, Poinsettia, Wild ([5]; 16 g ai/ha Postemergence)	other results
FC(F)c1cc(-c2ccccc2Oc2ncc(Br)cn2)on1 [Compound 212]	30	40	70	0	0	10	10	20	30	30	35	90	90	95	100	0	0	0	0	35	Plant response rating, Field Bindweed ([1]; 62 g ai/ha Postemergence): 60; Plant response rating, Poinsettia, Wild ([5]; 31 g ai/ha Postemergence): 40; Plant response rating, Poinsettia, Wild ([5]; 62 g ai/ha Postemergence): 50; Plant response rating, Poinsettia, Wild ([5]; 125 g ai/ha Postemergence): 60; Plant response rating, Dayflower, VA ([6]; 16 g ai/ha Postemergence): 30; Plant response rating, Dayflower, VA ([6]; 31 g ai/ha Postemergence): 20; Plant response rating, Dayflower, VA ([6]; 62 g ai/ha Postemergence): 40; Plant response rating, Dayflower, VA ([6]; 125 g ai/ha Postemergence): 50; Plant response rating, Sandbur ([7]; 16 g ai/ha Postemergence): 0; Plant response rating, Sandbur ([7]; 31 g ai/ha Postemergence): 0; Plant response rating, Sandbur ([7]; 62 g ai/ha Postemergence): 0; Plant response rating, Sandbur ([7]; 125 g ai/ha Postemergence): 10; Plant response rating, Pigweed, Palmer ([8]; 16 g ai/ha Postemergence): 30; Plant response rating, Pigweed, Palmer ([8]; 31 g ai/ha Postemergence): 75; Plant response rating, Pigweed, Palmer ([8]; 62 g ai/ha Postemergence): 100; Plant response rating, Pigweed, Palmer ([8]; 125 g ai/ha Postemergence): 98; Plant response rating, Soybean (soybean (Glycine max); 16 g ai/ha Postemergence): 50; Plant response rating, Soybean (soybean (Glycine max); 31 g ai/ha Postemergence): 50; Plant response rating, Soybean (soybean (Glycine max); 62 g ai/ha Postemergence): 75; Plant response rating, Soybean (soybean (Glycine max); 125 g ai/ha Postemergence): 95
Fc1ccc(Oc2ncc(Cl)cn2)c(-c2cc(C(F)(Cl)Cl)on2)c1 [Compound 221]	70	75	80	10	15	40	60	20	25	45	75	90	98	95	100	5	10	10	20	65	Plant response rating, Poinsettia, Wild ([5]; 31 g ai/ha Postemergence): 75; Plant response rating, Poinsettia, Wild ([5]; 62 g ai/ha Postemergence): 70; Plant response rating, Poinsettia, Wild ([5]; 125 g ai/ha Postemergence): 80; Plant response rating, Dayflower, VA ([6]; 16 g ai/ha Postemergence): 60; Plant response rating, Dayflower, VA ([6]; 31 g ai/ha Postemergence): 70; Plant response rating, Dayflower, VA ([6]; 62 g ai/ha Postemergence): 80; Plant response rating, Dayflower, VA ([6]; 125 g ai/ha Postemergence): 80; Plant response rating, Sandbur ([7]; 16 g ai/ha Postemergence): 0; Plant response rating, Sandbur ([7]; 31 g ai/ha Postemergence): 0; Plant response rating, Sandbur ([7]; 62 g ai/ha Postemergence): 0; Plant response rating, Sandbur ([7]; 125 g ai/ha Postemergence): 0; Plant response rating, Pigweed, Palmer ([8]; 16 g ai/ha Postemergence): 85; Plant response rating, Pigweed, Palmer ([8]; 31 g ai/ha Postemergence): 90; Plant response rating, Pigweed, Palmer ([8]; 62 g ai/ha Postemergence): 100; Plant response rating, Pigweed, Palmer ([8]; 125 g ai/ha Postemergence): 100; Plant response rating, Soybean (soybean (Glycine max); 16 g ai/ha Postemergence): 60; Plant response rating, Soybean (soybean (Glycine max); 31 g ai/ha Postemergence): 95; Plant response rating, Soybean (soybean (Glycine max); 62 g ai/ha Postemergence): 98; Plant response rating, Soybean (soybean (Glycine max); 125 g ai/ha Postemergence): 95
